Measurements as given in patent US20240116985A1, “STAPLED PEPTIDES AND METHODS THEREOF” (priority 2020, published 2024).

Legend:
[1] = molecular target: T1, full-length beta-Catenin (Uniprot ID P35222) (Homo sapiens, UniProt P35222); assay: Fluorescence polarization IC50 (beta-catenin / 5FAM-TCF4 10-53 competition); format: binding; conditions: fluorescence polarization; read-out: beta-Catenin FP IC50
T1 construct: 10 nM full-length beta-Catenin (Uniprot ID P35222)
T1 sequence (P35222 1-781): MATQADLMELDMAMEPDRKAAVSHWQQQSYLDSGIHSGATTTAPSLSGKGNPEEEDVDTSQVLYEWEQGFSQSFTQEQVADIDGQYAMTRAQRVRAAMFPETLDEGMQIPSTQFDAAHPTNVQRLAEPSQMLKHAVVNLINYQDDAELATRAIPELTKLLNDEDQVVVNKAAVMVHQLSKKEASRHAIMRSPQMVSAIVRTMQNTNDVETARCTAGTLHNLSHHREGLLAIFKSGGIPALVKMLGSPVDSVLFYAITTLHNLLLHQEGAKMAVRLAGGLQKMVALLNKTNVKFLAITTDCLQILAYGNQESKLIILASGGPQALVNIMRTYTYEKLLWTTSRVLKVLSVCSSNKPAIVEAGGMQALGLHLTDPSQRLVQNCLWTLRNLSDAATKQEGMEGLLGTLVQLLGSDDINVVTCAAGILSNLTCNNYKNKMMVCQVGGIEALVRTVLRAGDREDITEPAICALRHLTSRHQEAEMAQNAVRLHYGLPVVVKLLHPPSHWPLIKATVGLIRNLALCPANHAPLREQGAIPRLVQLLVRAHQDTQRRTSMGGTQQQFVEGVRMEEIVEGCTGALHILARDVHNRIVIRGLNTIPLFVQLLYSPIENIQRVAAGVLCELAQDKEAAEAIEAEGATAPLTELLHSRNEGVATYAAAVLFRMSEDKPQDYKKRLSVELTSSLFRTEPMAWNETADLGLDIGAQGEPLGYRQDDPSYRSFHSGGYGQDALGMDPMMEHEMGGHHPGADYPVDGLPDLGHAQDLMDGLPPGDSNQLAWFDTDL

[2] = molecular target: T2, beta-catenin/TCF4 engagement (Homo sapiens, UniProt P35222); assay: Nano-BRET target engagement assay (B-cat-Halo & TCF4-Luc in HEK293 cells); format: cell-based; conditions: absolute IC50; read-out: NanoBRET Abs IC50
T2 construct: expressed in transfected cells; host or cells: HEK293
T2 sequence (P35222 1-781): T1 sequence (P35222 1-781)

IC50 [1] [nM] | IC50 [2] [nM] | Compound
49 | 6100 | CC(=O)N1CCC[C@]12CC=CCCCC1(CCCC=CCCCOC(=O)N3CC[C@@](C(=O)N[C@@H](Cc4ccccc4C(F)(F)F)C(=O)N[C@@H](Cc4csc5cccc(Cl)c45)C(=O)N[C@@H](C)C(N)=O)(C3)NC(=O)[C@H](CC(C)C)NC(=O)[C@H](Cc3ccccc3)NC(=O)[C@H](C)NC(=O)[C@H](CCC(N)=O)NC(=O)[C@H](Cc3cccc(C(=O)O)c3)NC(=O)[C@H](CC(=O)O)NC1=O)NC(=O)[C@H](CC(C)(C)C)NC(=O)[C@H](CC(=O)O)NC2=O (stereo partly drawn) [I-2491, Ac-PL3-Asp-Npg-B5-Asp-3COOHF-Gln-Ala-Phe-Leu-PyrS2-2F3MeF-4C1BztA-Ala-NH2]
267 | > 20000 | CC(=O)N1CCC[C@]12CC=CCCCC1(CCCC=CCCCOC(=O)N3CC[C@@](C(=O)N[C@@H](Cc4ccsc4)C(=O)N[C@@H](Cc4csc5ccccc45)C(=O)N[C@@H](CCC(N)=O)C(N)=O)(C3)NC(=O)[C@H](CC(N)=O)NC(=O)[C@H](Cc3ccccc3)NC(=O)[C@H](C)NC(=O)C3(CCCC3)NC(=O)[C@H]([C@@H](C)O)NC(=O)[C@H](CC(N)=O)NC1=O)NC(=O)[C@H](CC(C)(C)C)NC(=O)[C@H](CC(=O)O)NC2=O (stereo partly drawn) [I-2493, Ac-PL3-Asp-Npg-B5-Asn-Thr-CyLeu-Ala-Phe-Asn-PyrS2-3Thi-BztA-Gln-NH2]
102 | > 20000 | CC(=O)N1CCC[C@]12CC=CCCCC1(CCCC=CCCCOC(=O)N3CC[C@@](C(=O)N[C@@H](Cc4ccsc4)C(=O)N[C@@H](Cc4csc5ccccc45)C(=O)N[C@@H](CC(=O)N(C)C)C(N)=O)(C3)NC(=O)[C@H](CC(N)=O)NC(=O)[C@H](Cc3ccccc3)NC(=O)[C@H](C)NC(=O)C(C)(C)NC(=O)[C@H]([C@@H](C)O)NC(=O)[C@H](CC(N)=O)NC1=O)NC(=O)[C@H](CC(C)(C)C)NC(=O)[C@H](CC(=O)O)NC2=O (stereo partly drawn) [I-2494, Ac-PL3-Asp-Npg-B5-Asn-Thr-Aib-Ala-Phe-Asn-PyrS2-3Thi-BztA-Me2Asn-NH2]
95 | > 20000 | CNC(=O)C[C@H](NC(=O)[C@H](Cc1csc2ccccc12)NC(=O)[C@H](Cc1ccsc1)NC(=O)[C@]12CCN(C1)C(=O)OCCCC=CCCCC1(CCCC=CC[C@]3(CCCN3C(C)=O)C(=O)N[C@@H](CC(=O)O)C(=O)N[C@@H](CC(C)(C)C)C(=O)N1)C(=O)N[C@@H](CC(N)=O)C(=O)N[C@@H]([C@@H](C)O)C(=O)NC(C)(C)C(=O)N[C@@H](C)C(=O)N[C@@H](Cc1ccccc1)C(=O)N[C@@H](CC(N)=O)C(=O)N2)C(N)=O (stereo partly drawn) [I-2495, Ac-PL3-Asp-Npg-B5-Asn-Thr-Aib-Ala-Phe-Asn-PyrS2-3Thi-BztA-MeAsn-NH2]
106 | > 20000 | CC(=O)N1CCC[C@]12CC=CCCCC1(CCCC=CCCCOC(=O)N3CC[C@@](C(=O)N[C@@H](Cc4ccsc4)C(=O)N[C@@H](Cc4csc5ccccc45)C(=O)N[C@@H](CC(N)=O)C(N)=O)(C3)NC(=O)[C@H](CC(=O)N(C)C)NC(=O)[C@H](Cc3ccccc3)NC(=O)[C@H](C)NC(=O)C(C)(C)NC(=O)[C@H]([C@@H](C)O)NC(=O)[C@H](CC(N)=O)NC1=O)NC(=O)[C@H](CC(C)(C)C)NC(=O)[C@H](CC(=O)O)NC2=O (stereo partly drawn) [I-2496, Ac-PL3-Asp-Npg-B5-Asn-Thr-Aib-Ala-Phe-Me2Asn-PyrS2-3Thi-BztA-Asn-NH2]
105 | > 20000 | CNC(=O)C[C@@H]1NC(=O)[C@H](Cc2ccccc2)NC(=O)[C@H](C)NC(=O)C(C)(C)NC(=O)[C@H]([C@@H](C)O)NC(=O)[C@H](CC(N)=O)NC(=O)C2(CCCC=CCCCOC(=O)N3CC[C@@](C(=O)N[C@@H](Cc4ccsc4)C(=O)N[C@@H](Cc4csc5ccccc45)C(=O)N[C@@H](CC(N)=O)C(N)=O)(C3)NC1=O)CCCC=CC[C@]1(CCCN1C(C)=O)C(=O)N[C@@H](CC(=O)O)C(=O)N[C@@H](CC(C)(C)C)C(=O)N2 (stereo partly drawn) [I-2497, Ac-PL3-Asp-Npg-B5-Asn-Thr-Aib-Ala-Phe-MeAsn-PyrS2-3Thi-BztA-Asn-NH2]
154 | > 20000 | CC(=O)N1CCC[C@]12CC=CCCCC1(CCCC=CCCCOC(=O)N3CC[C@@](C(=O)N[C@@H](Cc4ccccc4)C(=O)N[C@@H](Cc4csc5ccccc45)C(=O)N[C@@H](CC(=O)N4CCOCC4)C(N)=O)(C3)NC(=O)[C@H](CC(C)C)NC(=O)[C@H](Cc3ccccc3)NC(=O)[C@H](C)NC(=O)[C@H](CCC(=O)N(C)C)NC(=O)[C@H](CCC(N)=O)NC(=O)[C@H](CC(=O)O)NC1=O)NC(=O)[C@H](CC1CCCCC1)NC(=O)[C@H](CC(N)=O)NC2=O (stereo partly drawn) [I-2501, Ac-PL3-Asn-Cha-B5-Asp-Gln-Me2Gln-Ala-Phe-Leu-PyrS2-Phe-BztA-MorphAsn-NH2]
214 | > 20000 | CNC(=O)CC[C@@H]1NC(=O)[C@H](CCC(N)=O)NC(=O)[C@H](CC(=O)O)NC(=O)C2(CCCC=CCCCOC(=O)N3CC[C@@](C(=O)N[C@@H](Cc4ccccc4)C(=O)N[C@@H](Cc4csc5ccccc45)C(=O)N[C@@H](CC(=O)N4CCOCC4)C(N)=O)(C3)NC(=O)[C@H](CC(C)C)NC(=O)[C@H](Cc3ccccc3)NC(=O)[C@H](C)NC1=O)CCCC=CC[C@]1(CCCN1C(C)=O)C(=O)N[C@@H](CC(N)=O)C(=O)N[C@@H](CC1CCCCC1)C(=O)N2 (stereo partly drawn) [I-2502, Ac-PL3-Asn-Cha-B5-Asp-Gln-MeGln-Ala-Phe-Leu-PyrS2-Phe-BztA-MorphAsn-NH2]
210 | > 20000 | CC(=O)N1CCC[C@]12CC=CCCCC1(CCCC=CCCCOC(=O)N3CC[C@@](C(=O)N[C@@H](Cc4ccccc4)C(=O)N[C@@H](Cc4csc5ccccc45)C(=O)N[C@@H](CC(=O)N4CCOCC4)C(N)=O)(C3)NC(=O)[C@H](CC(C)C)NC(=O)[C@H](Cc3ccccc3)NC(=O)[C@H](C)NC(=O)[C@H](CCC(N)=O)NC(=O)[C@H](CCC(N)=O)NC(=O)[C@H](CC(=O)O)NC1=O)NC(=O)[C@H](CC1CCCCC1)NC(=O)[C@H](CC(N)=O)NC2=O (stereo partly drawn) [I-2504, Ac-PL3-Asn-Cha-B5-Asp-Gln-Gln-Ala-Phe-Leu-PyrS2-Phe-BztA-MorphAsn-NH2]
152 | 27300 | CC(=O)N1CCC[C@]12CC=CCCCCC1(CCCCC=CCCOC(=O)N3CC[C@@](C(=O)N[C@@H](Cc4ccccc4C(F)(F)F)C(=O)N[C@@H](Cc4csc5ccccc45)C(=O)N[C@@H](CCC(N)=O)C(N)=O)(C3)NC(=O)[C@H](CC(C)C)NC(=O)[C@H](Cc3ccccc3)NC(=O)[C@H](C)NC(=O)[C@H](C)NC(=O)[C@H](Cc3cccc(C(=O)O)c3)NC(=O)[C@H](CC(=O)O)NC1=O)NC(=O)[C@H](CC(C)(C)C)NC(=O)[C@H](CC(=O)O)NC2=O (stereo partly drawn) [I-2508, Ac-PL3-Asp-Npg-B6-Asp-3COOHF-Ala-Ala-Phe-Leu-PyrS1-2F3MeF-BztA-Gln-NH2]
24 | 7800 | CC(=O)N1CCC[C@]12CC=CCCCCC1(CCCCC=CCCOC(=O)N3CC[C@@](C(=O)N[C@@H](Cc4ccccc4C(F)(F)F)C(=O)N[C@@H](Cc4csc5ccccc45)C(=O)N[C@@H](C)C(N)=O)(C3)NC(=O)[C@H](CC(C)C)NC(=O)[C@H](Cc3ccccc3)NC(=O)[C@H](C)NC(=O)[C@H](CCC(N)=O)NC(=O)[C@H](Cc3cccc(C(=O)O)c3)NC(=O)[C@H](CC(=O)O)NC1=O)NC(=O)[C@H](CC(C)(C)C)NC(=O)[C@H](CC(=O)O)NC2=O (stereo partly drawn) [I-2510, Ac-PL3-Asp-Npg-B6-Asp-3COOHF-Gln-Ala-Phe-Leu-PyrS1-2F3MeF-BztA-Ala-NH2]
66 | > 20000 | CC(=O)N1CCC[C@]12CC=CCCCCC1(CCCCC=CCCCOC(=O)N3CC[C@@](C(=O)N[C@@H](Cc4ccccc4C(F)(F)F)C(=O)N[C@@H](Cc4csc5ccccc45)C(=O)N[C@@H](CCC(N)=O)C(N)=O)(C3)NC(=O)[C@H](CC(C)C)NC(=O)[C@H](Cc3ccccc3)NC(=O)[C@H](C)NC(=O)[C@H](C)NC(=O)[C@H](Cc3cccc(C(=O)O)c3)NC(=O)[C@H](CC(=O)O)NC1=O)NC(=O)[C@H](CC(C)(C)C)NC(=O)[C@H](CC(=O)O)NC2=O (stereo partly drawn) [I-2513, Ac-PL3-Asp-Npg-B6-Asp-3COOHF-Ala-Ala-Phe-Leu-PyrS2-2F3MeF-BztA-Gln-NH2]
1610 | > 20000 | CC(=O)N1CCC[C@]12CC=CCCCCC1(CCCCC=CCCCOC(=O)N3CC[C@@](C(=O)N[C@@H](Cc4ccccc4C(F)(F)F)C(=O)N[C@@H](Cc4csc5ccccc45)C(=O)N[C@@H](C)C(N)=O)(C3)NC(=O)[C@H](CC(C)C)NC(=O)[C@H](Cc3ccccc3)NC(=O)[C@H](C)NC(=O)[C@H](CCC(N)=O)NC(=O)[C@H](Cc3cccc(C(=O)O)c3)NC(=O)[C@H](CC(=O)O)NC1=O)NC(=O)[C@H](CC(C)(C)C)NC(=O)[C@H](CC(=O)O)NC2=O (stereo partly drawn) [I-2515, Ac-PL3-Asp-Npg-B6-Asp-3COOHF-Gln-Ala-Phe-Leu-PyrS2-2F3MeF-BztA-Ala-NH2]
